We go through one molecule from patent US20210188856A1, “CRYSTAL FORM OF HYDROCHLORIDE OF PYRAZOLOHETEROARYL DERIVATIVE AND PREPARATION METHOD” (JIANGSU HENGRUI MEDICINE CO., LTD., priority 2018, published 2021).

The target of this test is T1, human TLR8 (Homo sapiens, UniProt Q9NR97).
T1 construct: host or cells: HEK-Blue hTLR8 (HEK293-derived) stably transfected cells
T1 sequence (Q9NR97 27-1041): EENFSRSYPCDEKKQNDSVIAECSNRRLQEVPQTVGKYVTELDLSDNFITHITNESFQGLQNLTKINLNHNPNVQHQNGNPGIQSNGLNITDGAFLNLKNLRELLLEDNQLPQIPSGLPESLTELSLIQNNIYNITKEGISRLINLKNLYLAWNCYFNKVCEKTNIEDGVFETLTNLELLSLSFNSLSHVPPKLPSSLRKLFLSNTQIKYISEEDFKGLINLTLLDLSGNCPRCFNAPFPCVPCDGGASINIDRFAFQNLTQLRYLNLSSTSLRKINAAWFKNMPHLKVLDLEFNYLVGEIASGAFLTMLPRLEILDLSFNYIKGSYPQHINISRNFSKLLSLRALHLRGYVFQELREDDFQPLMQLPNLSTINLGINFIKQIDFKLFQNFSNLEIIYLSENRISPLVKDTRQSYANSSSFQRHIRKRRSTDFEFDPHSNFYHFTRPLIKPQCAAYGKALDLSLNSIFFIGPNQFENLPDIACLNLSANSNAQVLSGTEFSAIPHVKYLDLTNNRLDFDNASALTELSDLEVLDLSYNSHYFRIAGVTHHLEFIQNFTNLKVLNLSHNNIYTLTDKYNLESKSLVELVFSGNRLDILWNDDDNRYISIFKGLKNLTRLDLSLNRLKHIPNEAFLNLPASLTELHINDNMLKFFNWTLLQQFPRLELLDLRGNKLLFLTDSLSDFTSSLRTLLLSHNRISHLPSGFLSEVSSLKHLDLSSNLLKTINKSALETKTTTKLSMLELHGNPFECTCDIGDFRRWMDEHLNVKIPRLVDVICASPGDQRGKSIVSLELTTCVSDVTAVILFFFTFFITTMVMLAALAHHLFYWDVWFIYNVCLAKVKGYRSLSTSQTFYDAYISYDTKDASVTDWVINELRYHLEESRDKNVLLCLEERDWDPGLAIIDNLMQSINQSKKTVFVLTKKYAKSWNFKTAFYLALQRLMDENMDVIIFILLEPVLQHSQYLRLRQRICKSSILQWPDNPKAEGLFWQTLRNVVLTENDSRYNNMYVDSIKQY
The experiment in a line: Agonistic effect on human TLR8 (HEK-Blue hTLR8 cells). Type of test: cell-based. How it is done: The agonistic effect of the compound represented by formula (I) on the hTLR8 protein expressed in HEK-Blue™ hTLR8 stably transfected cells was determined by the following experimental method:
A bag of HEK-Blue detection dry powder was dissolved in 50 mL of water free of endotoxin, and the solution was then placed in an incubator at 37° C. for 10 minutes followed by sterile filtration to prepare a HEK-Blue detection medium. The compound was firstly formulated into a 20 mM stock solution, then diluted with pure DMSO to a maximum concentration of 6×10^6 nM, and a total of 10 points were obtained by a 3-fold gradient dilution. The compound was firstly diluted 20-fold with the medium, then 20 μL of the diluted compound was added to each well.
The supernatant was removed from the HEK-Blue™ hTLR8 cells, to which 2-5 mL of pre-warmed PBS was then added. The cells were placed in an incubator for 1-2 minutes, gently pipetted, and counted by trypan blue staining. The cells were re-suspended in the HEK-Blue detection medium and the concentration was adjusted to 2.2×10^5 cells/mL. 180 μL of cells was added to the above 96-well plate added with 20 μL of the compound, and incubated at 37° C. for 6-16 hours.
The plate was read with a microplate reader at a wavelength of 620 nm. The corresponding OD values were obtained, and the EC50 value of the compound was calculated by Graphpad Prism.

Take `CCCCOc1nc(N)c2cnn(Cc3ccc(CN4CCCC4)cc3)c2n1` [compound represented by formula (I), 6-Butoxy-1-(4-(pyrrolidin-1-ylmethyl)benzyl)-1H-pyrazolo[3,4-d]pyrimidin-4-amine]: the “agonistic effect on human TLR8 (in words)” value (HEK-Blue hTLR8 cells) is listed as “no agonistic effect”. Under “from TLR7 and TLR8 results”, the “selectivity for TLR7 over TLR8 (in words)” value is given as “high selectivity”.
